From patent US10759799B2, “Indazole containing macrocycles and therapeutic uses thereof” (Samumed, LLC, priority 2018, dated 2020)

What was measured:
Type in all cases: cell-based
[1] = test system: primary human fibroblasts derived from IPF patients (LL29 cells); experiment: Inhibition of TGF-β1 induced fibrosis (αSMA staining) in LL29 fibroblasts; conditions: Fibroblast; for EC50: 96 h, LL29 cells, TGF-β1 20 ng/mL, 4 days, % αSMA positive cells
Protocol: Representative compounds were screened using primary human fibroblasts (derived from IPF patients) treated with TGF-β1 to determine their ability to inhibit the fibrotic process.
LL29 cells were plated at 1,500 cells/well in 70 μL/well F12 medium supplemented with 1% Fetal Bovine Serum. […] Wells treated with TGF-β1 and containing DMSO were used as positive control, and cells with only DMSO were negative control. […] Following incubation for 4 days, SYTOX green nucleic acid stain (Life Technologies [Thermo Fisher Scientific]) was added to the wells at a final concentration of 1 μM and incubated at room temperature for 30 min.

IL-6 = IL-6 inhibition in LPS-stimulated human PBMCs (HTRF); conditions: PBMC; for EC50: huPBMCs, LPS 50 ng/mL, 22 hours, IL-6 HTRF; for inhibition at 10 µM: read-out: percent inhibition at 10 μM
Protocol: Fresh Normal PB MNC (Catalog # PB001, AllCells, Alameda, Calif.) were shipped overnight at 4° C. and resuspended in Roswell Park Memorial Institute (RPMI) 1640 Medium, with GlutaMAX Supplement (Catalog #61870127, ThermoFisher Scientific, Waltham, Mass.) supplemented with 1% Penicillin-Streptomycin (Catalog #15140163, ThermoFisher Scientific, Waltham, Mass.) and 1% fetal bovine serum (FBS) (Catalog #16140089, ThermoFisher Scientific, Waltham, Mass.) assay media.
Compound Screening: Fresh normal human peripheral blood mononuclear cells (huPBMCs) were resuspended in 1% FBS-RPMI assay media with 1% Penicillin-Streptomycin 1% to a cell concentration of 1×10e6 cells/mL. […] 50 ng/mL of Lipopolysaccharides from Escherichia coli 0111:B4 (Catalog # L5293-2ML, Sigma-Aldrich, St. Louis, Mo.) was added after 2 hours and cells were incubated for another 22 hours at 37° C.-5% CO2. After 22 hour incubation, a mixture of anti-IL6 XL665 and anti-IL-6 Cryptate diluted in reconstitution buffer (Catalog #62IL6PEC, Cisbio Inc., Bedford, Mass.) was added to each well. Following incubation for 3 hours at room temperature, Homogeneous Time-Resolved Fluorescence (HTRF) was measured using the Envision (Perkin Elmer, Shelton, Conn.) at 665 nm and […]. The ratio of fluorescence at 665 nm to 620 nm was used as a readout for IL-6 quantification. All samples were processed in duplicate. Readings were normalized to DMSO treated cells and normalized activities were utilized for EC50 calculations. EC50 was determined using software generated by Dotmatics Limited (Windhill Bishops Stortford Herts, UK) using the Levenberg-Marquardt 4 parameter fitting procedure with finite different gradients.

[2] = test system: SW480 colon carcinoma cells; experiment: Cell viability assay (CellTiter-Glo) in SW480 cells; conditions: Homo sapiens; for EC50: 96 h, SW480 cell viability, four days, CellTiter-Glo; for inhibition at 10 µM: SW480, read-out: percent inhibition at 10 μM
Protocol: Representative compounds were screened using the assay procedure to assess the effect on cell viability as described below.
SW480 colon carcinoma cells were transduced with a lentiviral vector expressing luciferase with a human Sp5 promoter consisting of a sequence of eight TCF/LEF binding sites. SW480 cells stably expressing the Sp5-Luc reporter gene and a hygromycin resistance gene were selected by treatment with 150 μg/mL of hygromycin for 7 days. These stably transduced SW480 cells were expanded in cell culture and used for all further screening activities.
For the Cell Viability Assays, the cells were plated at 2,000 cells/well in 384-well plates with a DMEM medium containing 1% fetal bovine serum, and 1% Penicillin-Streptomycin and incubated for […] at 37° C. and 5% CO2. Eight replicates of DMSO-treated cells served as controls and cells treated with compound were performed in duplicate.
After incubation, 10 μL of CellTiter-Glo (Promega) was added to each well allowed to incubate for approximately 12 minutes. This reagent “results in cell lysis and generation of a luminescent signal proportional to the amount of ATP present. The amount of ATP is directly proportional to the number of cells present in culture, in agreement with previous reports. The CellTiter-Glo Assay generates a “glow-type” luminescent signal, produced by the luciferase reaction (Promega.com)”.

[3] = test system: primary human mesenchymal stem cells (hMSCs); experiment: Chondrogenesis induction in hMSCs (Rhodamine B staining intensity, EC50); conditions: 6 days, Rhodamine B staining intensity of nodules
Description: Representative compounds were screened using primary human mesenchymal stem cells (hMSCs) to determine their ability to induce chondrogenesis (process by which cartilage is developed).
Primary human mesenchymal stem cells (hMSCs) were purchased from Lonza (Walkersville, Md.) and expanded in Mesenchymal Stem Cell Growth Media (Lonza). Cells between passage 2 and 4 were used for the experiments.
To image chondrogenic nodules, the cells were fixed using 4% formaldehyde (Electron Microscopy Sciences), and stained with 2 μg/mL Rhodamine B (Sigma-Aldrich) and 20 μM Nile Red (Sigma-Aldrich) [Johnson K., et. al, A Stem Cell-Based Approach to Cartilage Repair, Science, (2012), 336(6082). […] Rhodamine B staining intensity of nodules in each well was normalized to the average of 3 DMSO treated wells on the same plate using Excel (Microsoft Inc.). The normalized averages (fold change over DMSO) of 3 replicate wells for each compound concentration were calculated. EC50 values were calculated using non-linear regression curve fitting in Prism 8 (Graphpad Inc.). Due to solubility limitations of some of the compounds, curve fitting was incomplete, and the highest observed activity was extrapolated to the insoluble doses for accurate EC50 determinations.
EC50 values are reported. Further, using TGF-β3 as a positive control, the concentration of representative compounds required to induce equivalent levels of chondrogenesis is reported. In addition, the maximum activity of each compound and the respective dose that each compound reached maximum chondrogenesis activity is reported.

[4] = test system: Wnt activity (Sp5-Luc reporter, SW480 colon carcinoma cells); experiment: Sp5-Luc reporter gene screening assay for Wnt activity in SW480 cells; conditions: Homo sapiens; for EC50: Sp5-Luc reporter, SW480 cells, 36 to 48 hours; for inhibition at 10 µM: SW480, read-out: percent inhibition at 10 μM
Description: The screening assay for Wnt activity is described as follows. Reporter cell lines can be generated by stably transducing cancer cell lines (e.g., colon cancer) or primary cells (e.g., IEC-6 intestinal cells) with a lentiviral construct that includes a Wnt-responsive promoter driving expression of the firefly luciferase gene.
SW480 colon carcinoma cells were transduced with a lentiviral vector expressing luciferase with a human Sp5 promoter consisting of a sequence of eight TCF/LEF binding sites. SW480 cells stably expressing the Sp5-Luc reporter gene and a hygromycin resistance gene were selected by treatment with 150 μg/mL of hygromycin for 7 days. These stably transduced SW480 cells were expanded in cell culture and used for all further screening activities. […] For Sp5-Luc reporter gene assays, the cells were plated at 4,000 cells/well in 384-well plates with a DMEM medium containing 1% fetal bovine serum, and 1% Penicillin-Streptomycin and incubated for 36 to 48 hours at 37° C. and 5% CO2. Following incubation, 15 μl of BriteLite Plus luminescence reagent (Perkin Elmer) was added to each well of the 384-well assay plates. The plates were placed on an orbital shaker for 2 min and then luminescence was quantified using the Envision (Perkin Elmer) plate reader. Readings were normalized to DMSO only treated cells, and normalized activities were utilized for EC50 calculations using the dose-response log (inhibitor) vs. response-variable slope (four parameters) nonlinear regression feature available in GraphPad Prism 5.0 (or Dotmatics).

| Compound | EC50 [1] [nM] | EC50 (IL-6) [nM] | EC50 [2] [nM] | EC50 [3] [nM] | EC50 [4] [nM] | inhibition at 10 µM (IL-6) [%] | inhibition at 10 µM [2] [%] | inhibition at 10 µM [4] [%] | inhibition at 10 µM ([1]; read-out: percent inhibition at 10 μM) [%] |
| --- | --- | --- | --- | --- | --- | --- | --- | --- | --- |
| O=C1CCc2cccc(c2)-c2cccc3[nH]c(nc23)-c2n[nH]c3ccc(cc23)-c2cncc(c2)N1 [Compound 1] | 24 | 381 | 94 | 12 | 22 |  |  |  |  |
| O=C1CCc2cccc(c2)-c2cncc(c2)NC(=O)c2n[nH]c3ccc(cc23)-c2cncc(c2)CN1 [Compound 97, 2^1H-4,10-diaza-2(5,3)-indazola-1,5(3,5)-dipyridina-6(1,3)-benzenacycloundecaphane-3,9-dione] | 406 | > 10000 | > 10000 | 69 | > 10000 | 25.7 | 25 | 22.2 |  |
| Cn1ncc2c1CNCc1cccc(c1)-c1cccc3[nH]c(nc13)-c1n[nH]c3ccc-2cc13 [Compound 15, (Z)-Methyl-1^1H,2^1H,3^1H-6-aza-2(5,3),3 (2,4)-diindazola-1 (4,5)-pyrazola-4(1,3)-benzenacycloheptaphane] | 87 | 585 | 118 | 51 | 59 |  |  |  |  |
| c1cc2cc(c1)-c1cncc3[nH]c(nc13)-c1n[nH]c3ccc(cc13)-c1cncc(c1)CNC2 [Compound 8, (Z)-2^3H,3H-6-Aza-2(7,2)-imidazo[4,5-c]pyridina-3(3,5)-indazola-4(3,5)-pyridina-1(1,3)-benzenacycloheptaphane] | 19 | 65 | 49 | 206 | 42 |  |  |  |  |
| CN1Cc2cncc(c2)-c2ccc3[nH]nc(c3c2)-c2nc3c(cccc3[nH]2)-c2cccc(c2)C1 [Compound 22, (Z)-6-Methyl-2^1H,3^1H-6-aza-2(5,3),3(2,4)-diindazola-1(3,5)-pyridina-4(1,3)-benzenacycloheptaphane] | 35 | 161 | 14 | 796 | 10 |  |  |  |  |
| O=C1CCc2cccc(c2)-c2cccc3[nH]c(nc23)-c2n[nH]c3ccc(nc23)-c2cncc(c2)N1 [Compound 7, (Z)-2^1H,3^1H-8-Aza-2(5,3)-pyrazolo[4,3-b]pyridina-3 (2,4)-benzo[d]imidazola-1(3,5)-pyridina-4(1,3)-benzenacyclooctaphan-7-one] | 560 | > 10000 | 455 | 22 | 437 | 11.6 |  |  |  |
| O=C1NC2CCC(CC2)NCc2cncc(c2)-c2ccc3[nH]nc(c3c2)-c2nc3c1cccc3[nH]2 [Compound 64, (6^1s,6^4s,Z)-1^1H,2^1H-5,7-diaza-1 (2,4),2(3,5)-dibenzo[d]imidazola-3(3,5)-pyridina-6(1,4)-cyclohexanacyclooctaphan-8-one] | 10000 | > 10000 | > 10000 | 147 | > 10000 | 12.7 | 15.8 | 47.4 | 72 |
| O=C1CCc2cccc(c2)-c2cccc3[nH]c(nc23)-c2n[nH]c3cnc(cc23)-c2cncc(c2)N1 [Compound 6, (Z)-2^1H,3^1H-8-Aza-2(5,3)-pyrazolo[3,4-c]pyridina-3(2,4)-benzo[d]imidazola-1(3,5)-pyridina-4(1,3)-benzenacyclooctaphan-7-one] | 29 | > 10000 | 142 | 16 | 9 | 9.5 |  |  |  |
| O=C1CCc2cccc(c2)-c2nccc3[nH]c(nc23)-c2n[nH]c3ccc(cc23)-c2cncc(c2)N1 [Compound 2, (Z)-2^1H,3^1H-5-Aza-2(4,2)-imidazo[4,5-c]pyridina-3 (3,5)-indazola-4(3,5)-pyridina-1(1,3)-benzenacyclooctaphan-6-one] | 224 | 3820 | 80 | 58 | 22 |  |  |  |  |
| CN1CCCn2cc(nn2)-c2cncc3[nH]c(nc23)-c2n[nH]c3ccc(cc23)-c2cncc(c2)C1 [Compound 45, (1^4Z,2^1Z)-6-Methyl-1 ^1H,2^3H,3^1H-6-aza-2(7,2)-imidazo[4,5-c]pyridina-3(3,5)-indazola-4(3,5)-pyridina-1(4,1)-triazolacyclononaphane] | 1540 | > 10000 | > 10000 | 22 | 338 | 5.9 | 44.1 |  |  |
| O=C1COc2cccc(c2)-c2cncc3[nH]c(nc23)-c2n[nH]c3ccc(cc23)-c2cncc(c2)N1 [Compound 38, (Z)-2^3H,3^1H-8-Oxa-5-aza-2(7,2)-imidazo[4,5-c]pyridina-3(3,5)-indazola-4(3,5)-pyridina-1(1,3)-benzenacyclooctaphan-6-one] | 38 | 612 | 415 | 36 | 87 |  |  |  |  |
| O=C1CCc2cccc(c2)-c2cccc3[nH]c(nc23)-c2n[nH]c3ncc(cc23)-c2cncc(c2)N1 [Compound 5, (Z)-2^1H,3^1H-8-Aza-2(5,3)-pyrazolo[3,4-b]pyridina-3(2,4)-benzo[d]imidazola-1(3,5)-pyridina-4(1,3)-benzenacyclooctaphan-7-one] | 78 | > 10000 | 407 | 213 | 124 | 9.2 |  |  |  |
